Literature values, collected in patent US6642275B2, “Formulation for respiratory tract administration” (Euro- Celtique, S.A., priority 1995, dated 2003).
Where two headings read alike, the source gives them in different places.

Tests used:
[1] = for plasma clearance rate: 100 mg IV dose
[2] = animal models, M1 vs tramadol
[3] = single oral dose, adjusted for body weight

Compound | plasma clearance rate ([1]; females) | plasma clearance rate ([1]; males) | higher area under the concentration-time curve in females compared to males [1, 3] | higher peak tramadol concentration in females compared to males [1, 3] | binding to opioid receptors (affinity, in words) (opioid receptors) | potency in opioid receptor binding relative to tramadol (opioid receptors; M1 vs tramadol) | potency in producing analgesia relative to tramadol [2] | potency in producing analgesia relative to tramadol ([2]; listed as mono-O-desmethyltramadol)
COc1cccc([C@@]2(O)CCCC[C@H]2CN(C)C)c1 (racemic) [tramadol, (±) trans-2-[(dimethylamino)methyl]-1-(3-methoxyphenyl) cyclohexanol] | 5.7 mL/min/kg | 6.4 mL/min/kg | 35% | 12% | – | – | – | –
CN(C)C[C@H]1CCCC[C@]1(O)c1cccc(O)c1 [Formula M1, mono-O-desmethyltramadol] | – | – | – | – | high affinity | 200 times | up to 6 times | about 6 times
